We go through two molecules from patent US9561193B2, “Oral and skin care compositions based on a 3,3-Dialkyl-1,1-biphenyl-2,2-diol or a 3,3-Dialkenyl-1,1-biphenyl-2,2-diol” (Colgate-Palmolive Company, priority 2011, dated 2017).

In brackets after ≈: the same amount, converted by molar mass.

Format in all cases: cell-based
In series [1] the test system is Escherichia coli (E. coli). In words: Minimum Inhibitory Concentration (MIC), skin bacteria. The settings on record: 18-24 hours of incubation. The protocol: (§1) Compound (3) was evaluated for its antibacterial efficacy against representative skin bacteria such as Staphylococcus aureus (S. aureus), Corynebacterium minutissimum (C. minutissimum), and Escherichia coli (E. coli). Minimum Inhibitory Concentration (MIC), and a Short Interval Kill Test (SIKT) were performed, and the results are described in Table 6 and Table 7 (below). MIC values against three common skin bacteria were determined for Compound (3) using the following method: A series of two-fold dilutions of Compound (3) was prepared in a 96 well plate and a constant amount of bacteria was added to each well. After 18-24 hours of incubation, bacterial growth was measured with a Spectrophotometric Micro-plate Reader and the MIC values were determined.

Series [2] deals with Staphylococcus aureus (S. aureus). The description is as above. The conditions noted are these: 18-24 hours of incubation. As to the method:
as §1

Series [3] has as its system Corynebacterium minutissimum (C. minutissimum). The description is as above. The conditions noted are these: 18-24 hours of incubation. As to the method:
as §1

The subject of the next series is Prostaglandin E2 (PGE2). In words: PGE2 EIA anti-inflammatory assay in IL-1β or HKPG stimulated cells. The conditions noted are these: PGE2 level; human embryo palatal mesenchyme cells; IL-1β (10 ng/ml) or heat-killed P. gingivalis (HKPG); overnight incubation. As to the method:
Prostaglandin E2 (PGE2) is a key mediator of periodontal inflammation and its expression is a well-established as a biomarker associated with gingival inflammation. […] The data of Table 9 were obtained generally according to the following method: A 100 μL aliquot of DMEM media (Dulbecco's Modified Eagle Medium) (Invitrogen, Carlsbad, Calif.) containing either IL-1β (10 ng/ml) (Roche Applied Science, Indianapolis Ind.) or 10^8 heat-killed Prophynomonas gingivalis (HKPG) into each well of a sterile 96-well plate (“mirror plate”). An additional 98 μl aliquot of DMEM media containing either IL-1β or HKPG was added to the first well in each row. […]
Each well of a second plate containing growing cells (human embryo palatal mesenchyme cells, catalog no. CRL-1486; ATCC, Manassas, Va.) is washed twice with PBS, after which any remaining media is aspirated from the wells. […] An additional 30 μL aliquot of media is added to each well to adjust the final volume to 100 μL and the level of PGE2 determined using a detection kit generally according to the manufacturer's instructions (PEG2-EIA Kit, catalogue no. 901-001; Assay Designs Inc, Ann Arbor Mich.) and software (GraphPad Prism, GraphPad Software, Inc., San Diego Calif.).

For series [4], the system named is Escherichia coli (E. coli). Kind of series: Short Interval Kill Test (SIKT). The settings on record: 1 minute exposure. The protocol:
(§2) Compound (3) was evaluated for its antibacterial efficacy against representative skin bacteria such as Staphylococcus aureus (S. aureus), Corynebacterium minutissimum (C. minutissimum), and Escherichia coli (E. coli). Minimum Inhibitory Concentration (MIC), and a Short Interval Kill Test (SIKT) were performed, and the results are described in Table 6 and Table 7 (below).
(§3) The SIKT test determines the kill effect of a test compound at a predetermined exposure time. The SIKT values presented below in Table 7, were obtained generally according to the following method: An aliquot of Compound (3) in a volume of 1.2 mL is transferred into a sterile test tube, to which 0.2 mL of a freshly prepared bacterial suspension (OD adjusted to 0.1 at 620 nm) is added and gently mixed. The reaction is neutralized at the 1 minute point by adding a neutralizing broth. The resulting mixture is then further diluted (serial ten-fold dilutions) with Letheen broth and an aliquot of each dilution is plated on MCA (Microbial Count Agar) plates for viable bacterial count.

Series [5] has as its system Staphylococcus aureus (S. aureus). Kind of series: Short Interval Kill Test (SIKT). The settings on record: 1 minute exposure. As to the method: as §2, §3
Another series deals with S. sanguis. In words: Minimum Inhibitory Concentration test, oral bacteria. The conditions noted are these: trypticase soy broth, 18-24 hours of incubation. As to the method:
(§4) Table 1 (below) describes the antibacterial efficacy (Minimum Inhibitory Concentration test) of Compound (3) [drawing 5] which is an exemplary compound of the present invention, against common oral bacteria, A. viscosus, S. mutans, S. oralis, S. sanguis, and L. casei. Minimum Inhibitory Concentration values are determined generally according to the following method: A series of two-fold dilutions of compound (3) in trypticase soy broth (Catalog No. 211768; Becton Dickinson, Franklin Lakes N.J.) was prepared in a 96 well plate and a constant amount of bacteria was then added to each well. After 18-24 hours of incubation, bacterial growth was measured with a Spectrophotometric Micro-plate Reader (Powerwave 5×, BioTEK, Winooski Vt.) and the MIC values were determined Results are provided in Table 1: […]

The subject of the next series is S. oralis. The series is described as above. The conditions noted are these: Streptococcus oralis, trypticase soy broth, 18-24 hours of incubation. As to the method:
as §4

The next series concerns L. casei. Described as above. The settings on record: Lacticaseibacillus casei, trypticase soy broth, 18-24 hours of incubation. The protocol: as §4
The next series relates to A. viscosus. The description is as above. The conditions noted are these: Actinomyces viscosus, trypticase soy broth, 18-24 hours of incubation. The protocol:
as §4

Another series has as its system S. mutans. Described as above. The settings on record: Streptococcus mutans, trypticase soy broth, 18-24 hours of incubation. As to the method:
as §4

As a reminder, the MIC is the lowest concentration found to suppress growth. A lower MIC goes with inhibition by little substance. As to `CCCc1cccc(-c2cccc(CCC)c2O)c1O` [Compound (3), [1,1-Biphenyl]-2,2′-diol,3,3′ dipropyl], the MIC in series [1] came out at 62.5 µg/mL (≈ 231 µM); in series [2], 31.2 µg/mL (≈ 116 µM); in series [3], 62.5 µg/mL (≈ 231 µM); against S. sanguis, 3.9 µg/mL (≈ 14.4 µM); in the series with S. oralis, 7.8 µg/mL (≈ 28.8 µM); with L. casei, 7.8 µg/mL (≈ 28.8 µM). Further, the results for the MIC against A. viscosus and against S. mutans were 3.9 µg/mL (≈ 14.4 µM) and 7.8 µg/mL (≈ 28.8 µM), respectively. In the series on Prostaglandin E2 (PGE2), the IC50 was 0.25 ppm. Also, the “SIKT (% Reduction in viable count in 1 min.)” value in series [4] is 99.55%; in series [5], 99.99%.

`C=CCc1ccc(O)c(-c2cc(CC=C)ccc2O)c1` [Magnolol, reference compound]: in the series with Prostaglandin E2 (PGE2), the IC50 is given as 0.40 ppm.
